Source: patent publication US20260115162A1, “COMPOSITION OR ASSOCIATION OF COMPOUNDS PREFERABLY FOR USE IN THE TREATMENT OF NERVOUS DISEASES IN PARTICULAR NEURODEGENERATIVE DISEASES, METHOD FOR THE PREPARATION OF SUCH COMPOSITION OR ASSOCIATION OF COMPOUNDS AND USES THEREOF” (PHARMACEUTICA SAN MARCO S.R.L., priority 2022, published 2026)
Entries after “also recorded” stand apart in the source; their conditions may differ. Like-named read-outs stand apart in the source and are kept apart here.

Columns and labels:
[1] = Pharmacokinetics of βBA and AKBA via os in healthy volunteers, fasted and hyperlipidic meal (Sterk V et al. 2004); format: in vivo, humans; conditions: healthy volunteers
Excerpt: Indeed, βBA has a concentration in the blood: • at least 6 times higher than AKBA both in the fasting condition and with a hyperlipidic meal; • increased by 6 times after hyperlipidic meal so that the plasma/os ratio passes from 0.09 to 0.55.

[2] = Plasma and brain levels of βBA and AKBA via os in mice (Gerbeth K et al. 2013); format: in vivo
Excerpt: βBA appears not to undergo blood-brain barrier. According to the data of Gerbeth K et al. 2013, brain levels of AKBA were very low, resulting 0.4 per AKBA in the brain/plasma ratio (but 0.81 according to Weber C C et al. 2006). In contrast, the § BA concentration in the brain was even higher than that found in the blood with 32% increase (See Table 1).

[3] = healthy volunteers, via os, cited from earlier work
[4] = cited from earlier work
[5] = cited from earlier work; remark: listed apart in the source
[6] = Weber C C et al. 2006; cited from earlier work
[7] = mice; cited from earlier work
[8] = cited from earlier work; remark: listed apart in the source
[9] = test system: intact mice; assay: Behavioral tests on intact animals (open field, freezing); format: in vivo; conditions: for lowest dose showing antidepressant effects: intact mice, preliminary experiments (unpublished observations); for effect in behavioral tests, individually: mouse, in vivo
Description: The trials were performed at the Department of Clinical and Experimental Medicine of the University of Foggia according to the following rationale. • 1. In the present mouse model of beta-amyloid toxicity, using validated tests in mice, we evaluated the behaviors: • a. antidepressant: Tail Suspension Test (TST); Forced Swimming Test (FST); Splash Test (ST) with latency time (sec) and self-care (sec) measurement. • b. antianxiety: Open Field Test with measurement of distance traveled (m), time spent in the wall (sec), time spent in the center (sec), center entries (n); Freezing Test (sec). • c. on memory, learning, coordination of motor skills, fear conditioning: Rotarod Test with measure of Latency to Fall, repeated after training to evaluate motor learning. • 2. We tested the protective effects with the following procedure: • a. individually: βCP, FE, βBA, DHA and HA4; • b. in association with pairs: βCP+HA4, FE+HA4, βBA+HA4, FE+βCP, βBA+FE, βBA+βCP. • c. in association, all four together: βCP+FE+βBA+HA4 • d. versus control (SHAM), • e. using the mouse model of an Aβ-induced depressive phenotype. • 3. These behavioral tests were integrated with serotonin, dopamine, noradrenaline and their metabolites prefrontal cortex and hippocampus measurement. • 4. Furthermore, we evaluated the cortical and hippocampal glutamate (GLU) levels in mice treated with AP and subsequently we tested the ability of βCP, FE, βBA and HA4, to modulate this neurochemical parameter.
βCP, FE e βBA (Merck, Cayman Chemical Company) was dissolved in sunflower oil, this vehicle was chosen in order to maintain a better tasting and higher density of the final solution thus reducing reflux through the digestive tract.
(§1) Ten μl of the solution (or vehicle alone) were administered sublingually to mice. Brain βCP, FE e βBA were quantified in a separate subset of mice at 5, 15 and 30 min after their administration.
Open Field Test. Mice were placed in an open field arena and allowed to explore for 30 min [Lama A et al. 2021]. After each trial, the arena floor was cleaned with 70% ethanol to avoid inter-assay bias. The movements of mice were video recorded and analyzed by ANY-maze tracking software (Ugo Basile-Varese, Gemonio, Italy). Locomotion was evaluated through total crossing measurements.

[10] = test system: kynurenine (KYN); assay: Kynurenine levels in mice treated with Aβ icv (FIG. 6); format: in vivo; conditions: prefrontal cortex and hippocampus, HA4 0.2 mg/mouse
Description: (§2) The Aβ1-42, obtained from Tocris (Bristol, UK), was dissolved in sterile double-distilled pyrogenic-free water, as vehicle, to obtain a final concentration 4 μM [Colaianna M et al. 2010]. Mice were anesthetized with a solution (0.85 in ml/kg, i.p.), containing ketamine (Sigma Aldrich, Milan, Italy, 100 mg/10 ml), xylazine (Sigma Aldrich, Milan, Italy, 100 mg/10 ml) and acepromazine (prequillant, ATI Azienda Terapeutica Veterinaria Srl, 10 mg/10 ml) dissolved in saline solution. Animals were secured in a stereotaxic frame (David Kopf Instruments, Tujunga, CA, USA) and the peptide injection was accomplished in the lateral ventricle of mice at the following coordinates: AP=−0.2, ML=+1 e DV=2 relative to bregma, according to the atlas of Paxinos and Franklin [Paxinos G and Franklin K B J 2019]. […] At the time of dissection, the correct needle track was assessed. […]
(§3) 5-HT, noradrenaline (NA), and KYN levels were measured in the PFC and HIPP of mice by HPLC coupled with an electrochemical detector (Ultimate ECD, Thermo Scientific Dionex, Milan, Italy) as already reported [Francavilla M et al. 2012, Morgese M G et al. 2016]. […] GLU concentrations were determined by HPLC coupled with fluorescence detection (emission length 460 nm; excitation length 340 nm), as previously published [Francavilla M et al. 2012]. […]

[11] = test system: glutamate (GLU); assay: Glutamate levels in mice treated with Aβ icv (FIG. 7); format: in vivo; conditions: after 7 days
Description: as §2, §3

[12] = test system: CD11b; assay: CD11b protein levels in mice treated with Aβ icv, Western blotting (FIG. 8); format: in vivo; conditions: PFC and HIPP, HA4 0.2 mg/mouse
Description: (§4) The total amount of proteins was measured in homogenates by using Pierce BCA Assay (Thermo Fisher Scientific, Cleveland, OH, USA). […] After HRP-conjugated specific antibody incubation, ECL reagent (Bio-Rad Laboratories Inc., Segrate (MI), Italy) was added to the immune complex and chemiluminescence was detected by ChemiDoc MP system (Bio-Rad Laboratories Inc., Segrate (MI), Italy). Optical densities of the bands were measured using Image J software (http://rsb.info.nih.gov/ij/ accessed on 15 Mar. 2021) and normalized against bands relative to -actin (1:5,000, Abcam, Cambridge, UK).

[13] = test system: GFAP; assay: GFAP protein levels in mice treated with Aβ icv, Western blotting (FIG. 9); format: in vivo; conditions: PFC and HIPP, HA4 0.2 mg/mouse
Description: as §4

[14] = test system: mice treated with Aβ icv; assay: Splash test in SHAM mice and mice treated with Aβ icv (FIG. 4); format: in vivo; conditions: after 7 days, HA4 200 μg, βCP 50 μg, βBA 100 μg, FE 50 μg sublingually
Description: The Aβ1-42, obtained from Tocris (Bristol, UK), was dissolved in sterile double-distilled pyrogenic-free water, as vehicle, to obtain a final concentration 4 μM [Colaianna M et al. 2010]. Mice were anesthetized with a solution (0.85 in ml/kg, i.p.), containing ketamine (Sigma Aldrich, Milan, Italy, 100 mg/10 ml), xylazine (Sigma Aldrich, Milan, Italy, 100 mg/10 ml) and acepromazine (prequillant, ATI Azienda Terapeutica Veterinaria Srl, 10 mg/10 ml) dissolved in saline solution. […] At the time of dissection, the correct needle track was assessed. […]
as §1
All behavioral experiments were conducted at 5 or 30 min after sublingual administrations of βBA or vehicle in mice treated with SHAM or AP. Based on the observed behavioral results, neurochemical and biochemical quantifications were performed 30 min after administration of βCP, FE, and βBA or vehicle in SHAM- or Aβ-treated mice.
Splash test. […] The test was videotaped and later an observer, blind to the trial, scored for latency to the first grooming event and duration of self-care behavior during the period of the test (5 min).

[15] = test system: dopamine (DA); assay: Dopamine (DA) levels in Aβ icv-treated mice (FIG. 5c); format: in vivo; conditions: HIPP
[16] = in vivo; cited from earlier work
[17] = cited from earlier work; remark: listed apart in the source
[18] = mice, cited from earlier work
[19] = intact animals, hyaluronic acid only (FIG. 3)

Question: For `CC(=O)O[C@@H]1CC[C@@]2(C)[C@@H](CC[C@]3(C)[C@@H]2C(=O)C=C2[C@@H]4[C@@H](C)[C@H](C)CC[C@]4(C)CC[C@]23C)[C@@]1(C)C(=O)O` [AKBA, acetyl-11-keto-beta-boswellic acid], which Δos/plasma ([1]; fasted conditions) is on record?
Answer: 68 fasted

Question: And the Δos/plasma ([1]; hyperlipidic fed conditions)?
Answer: 15 hyperlipidic

Question: And the Δos/brain [2]?
Answer: 204

Question: What about the Δos/plasma [2] of the same molecule?
Answer: 82

Question: And the Δplasma/brain [2]?
Answer: 2.5

Question: What about the “concentration in the plasma” value ([3]; fasted conditions) of the same molecule?
Answer: 6 fasted ng/g o ng/ml

Question: And the “concentration in the plasma” value ([3]; hyperlipidic fed conditions)?
Answer: 28 hyperlipidic ng/g o ng/ml

Question: What about the blood concentration ([4]; 80 mg AKBA to 13 patients, found in only one of them) of the same molecule?
Answer: 15.5 ng/mL

Question: And the “concentration in the plasma” value ([4]; patients, via os)?
Answer: 0-15 ng/g o ng/ml

Question: And the brain/plasma ratio ([5]; Gerbeth K et al. 2013)?
Answer: 0.4

Question: What about the “reduction of blood concentration compared to the dose introduced orally” value ([5]; mice, via os, intestinal mucosa to blood) of the same molecule?
Answer: 80 times

Question: And the “concentration in the brain” value ([5]; mice, via os)?
Answer: 37.5 ng/g o ng/ml

Question: What about the “concentration in the plasma” value ([5]; mice, via os) of the same molecule?
Answer: 93 ng/g o ng/ml

Question: What about the “reduction of concentration when crossing the blood-brain barrier” value ([5]; mice) of the same molecule?
Answer: more than twice

Question: What about the brain/plasma ratio [6] of the same molecule?
Answer: 0.81

Question: With `CC/C=C\C/C=C\C/C=C\C/C=C\C/C=C\C/C=C\CCC(=O)O` [DHA, docosahexaenoic acid] as the molecule, how does the safe dose [7] read?
Answer: ≤ 3.2 g/kg/day

Question: And the harmless dose ([8]; adult humans)?
Answer: at least 7.5 g/day

Question: What about the safe dose ([8]; children) of the same molecule?
Answer: at least 315 mg/day

Question: With `CC1=CC=C[C@]2(C)Cc3occ(C)c3C[C@@H]12` [FE, furanoeudesma-1,3-diene] as the molecule, how does the “lowest dose showing antidepressant effects” value [9] read?
Answer: 5 mg/kg

Question: What about the “effect in behavioral tests, individually” value [9] of the same molecule?
Answer: antidepressant and anxiolytic effect

Question: With `CC(=O)N[C@H]1[C@H](O[C@H]2[C@H](O)[C@@H](O)[C@H](O[C@H]3[C@H](O)[C@@H](CO)OC(O)[C@@H]3NC(C)=O)O[C@@H]2C(=O)O)O[C@H](CO)[C@@H](O)[C@@H]1O[C@@H]1O[C@H](C(=O)O)[C@@H](O)[C@H](O)[C@H]1O` (stereo partly shown) [HA4, hyaluronic acid HA4 tetrasaccharide] as the molecule, how does the freezing [9, 19] read?
Answer: clear anxiolytic and antidepressant effect

Question: And the locomotor activity [9, 19]?
Answer: does not create deficits in the animal's locomotor activity

Question: And the “effect in behavioral tests, individually” value [9]?
Answer: antidepressant and anxiolytic effect

Question: And the Kynurenine levels [10]?
Answer: significant reduction

Question: What about the Glutamate levels [11] of the same molecule?
Answer: increase in glutamate

Question: And the CD11b protein levels [12]?
Answer: Significant reduction of CD11b in both PFC and HIPP

Question: And the GFAP protein levels [13]?
Answer: significant reduction; also recorded: removes GFAP alterations in both PFC and HIPP

Question: With `C=C1CC/C=C(\C)CC[C@@H]2[C@@H]1CC2(C)C` [βCP, β-caryophyllene] as the molecule, how does the “lowest dose showing antidepressant effects” value [9] read?
Answer: 5 mg/kg

Question: And the “effect in behavioral tests, individually” value [9]?
Answer: antidepressant and anxiolytic effect

Question: And the “Splash test latency time (antidepressant effect)” value [14]?
Answer: antidepressant effect

Question: What about the “Dopamine (DA) levels” value [15] of the same molecule?
Answer: increase in dopaminergic activity in HIPP

Question: And the “toxic dose (category 5 substance, OECD guidelines)” value [16]?
Answer: greater than 2,000 mg/kg

Question: And the pathological changes ([17]; mice, 100 mg/kg i.p.)?
Answer: no evidence of pathological changes

Question: And the LD50 ([17]; mouse, in vivo, ip)?
Answer: 316 mg/kg

Question: For Hyaluronic acid, which LD50 ([18]; intraperitoneum) is on record?
Answer: 1,500 mg/kg

Question: What about the LD50 ([18]; subcutaneous) of the same molecule?
Answer: > 4,000 mg/kg

Question: What about the LD50 ([18]; via os) of the same molecule?
Answer: > 2,400 mg/kg
